# Data taken from publication PMC9043997, “LEAP2 reduces postprandial glucose excursions and ad libitum food intake in healthy men” (Cell Reports Medicine, 2022).
# Where a SMILES comes first, the peptide text is derived from it. Bridges are numbered along the chain shown (N, C = ends).
# Tests used:
# wild-type mice = assay: Plasma glucose and food intake after subcutaneous LEAP2 in wild-type mice; type: in vivo, mouse
# Method: Food intake and blood glucose measurements were measured in female GHSR-null mice (n = 8) and wild-type littermates (n = 10) (14–24 weeks of age). Mice were double-housed with matching genotype and age. All mice were fasted for four hours and randomized by mean body weight per cage and allocated into either vehicle (saline) or LEAP2 administration on the first day of the study. LEAP2 or vehicle was administered subcutaneously just before start of dark phase (6 PM). By start of dark phase, mice had ad libitum access to water and a normal chow diet. Cumulative food intake was measured one, two and four hours after administration and calculated as the average food intake per cage per g body weight of each mouse, respectively. Blood glucose was measured in blood from a tail puncture at baseline and one, two and four hours after administration by use of a glucometer (Contour ™xt meter; Ascensia Diabetes Care, Basel, Switzerland). One week later, mice underwent the same procedure, but with the opposite treatment. The concentration of the LEAP2 dose was 3 μmol/kg.
# healthy men [1] = assay: Brown adipose tissue thermogenesis by thermal imaging; type: in vivo, human; details: iv LEAP2 ~25 pmol/kg/min, thermal imaging camera
# Method: To assess BAT thermogenesis, temperature of the upper chest was measured from −10 to 0 min, 0 to 15 min, 90 to 105 min and 180 to 195 min using a thermal imaging camera (FLIR A655sc; FLIR Systems, Wilsonville, Oregon, USA). Participants were positioned approximately one meter from the camera in a hospital bed with slight elevation of the head and wearing long-sleeved shirts that exposed the upper chest. The emissivity for measurement of human skin temperatures was set to 0.98 as detailed by the manufacturer. Thermal images were collected at 30-s intervals and analyzed using the FLIR tools program (FLIR Systems, Wilsonville, Oregon, USA). Post hoc, the two supraclavicular regions and a region corresponding to the manubrium of the sternum were marked as regions of interest and the maximum temperature per image was recorded. An average of records from the two supraclavicular regions was used. The manubrium region was used as a negative control reflecting the overall cutaneous heat production.[37], [38], [39] For analysis of BAT thermogenesis, manubrium-corrected temperature was calculated as the average of the supraclavicular skin temperatures minus the manubrium skin temperature. […] Average room temperature was 22.5 ± 0.06 °C adjusted by two air conditioners (Electrolux EXP35U538CW; AB Electrolux, Stockholm, Sweden) and recorded four times during each experimental day. […]
# healthy men [2] = assay: Plasma acyl ghrelin during LEAP2 infusion, crossover study; type: in vivo, human; details: mean ± SEM
# Source text: The infusion was terminated when participants had finished eating.
# For analysis of plasma glucose, blood was distributed in fluoride heparin-coated tubes, centrifuged immediately for 30 s (12,100 g, room temperature) and measured bedside by the glucose oxidase method (YSI 2900 Biochemistry Analyzer; YSI Incorporated, Yellow Springs, Ohio, USA). For analysis of LEAP2, blood was collected in chilled K3EDTA tubes each containing 250 KIU of aprotinin. For analysis of acyl ghrelin, blood was collected in chilled K2EDTA tubes added 20 μL pefabloc (100 mg/mL; Merck Millipore, Burlington, Massachusetts, USA). Subsequently, pefabloc-treated plasma was acidified with HCl (12.5 μL 2M HCl per 500 μL plasma; Merck Millipore, Burlington, Massachusetts, USA). For analysis of glucagon, blood was collected in K2EDTA tubes. For analysis of GH, insulin, C-peptide, free fatty acids, glycerol, triglycerides and acetaminophen (paracetamol), blood was collected in tubes with lithium and heparin. All tubes were immediately cooled on ice, centrifuged for 15 min (2,000 g, 4°C) and stored at −80°C until analysis. LEAP2 concentrations were determined by an in-house radioimmunoassay directed against the N-terminal part of LEAP2. LEAP-2 was used for standards, and the tracer was a peptide composed of the 12 N-terminal amino acids of LEAP2, with a ^125I-labelled tyrosine added to the C-terminal end. The precision and accuracy of the assay were evaluated based on European Medicines Agency's guidelines for bioanalytical assay validation. […] Due to supply chain disruptions from the COVID-19 pandemic, acyl ghrelin was only measured in plasma samples at timepoints 0, 60, 105, 165 and 255 min. […] Plasma GH was measured by Immunodiagnostic system-iSYS assay (IS-3700; IDS Limited, Boldon, UK). The assay is based on chemiluminesence technology and was performed according to the manufacturer’|'s instructions. […] For analysis of glucagon, plasma was extracted in a final concentration of 70% ethanol. Glucagon was measured using a C-terminal directed antiserum (code number 4305) measuring glucagon of pancreatic origin as previously described.[40] […] Plasma insulin and C-peptide were measured using a two-sided electrochemiluminescence immunoassay (Atellica IM Analyzer; Siemens Healthcare, Ballerup, Denmark). Plasma triglycerides and acetaminophen were analyzed by spectrophotometric methods following enzymatic hydrolysis and oxidation (Siemens Atellica CH 930; Siemens Healthcare, Ballerup, Denmark). Plasma concentrations of free fatty acids and glycerol were determined by enzymatic methods modified to run on a COBAS 6000 automatic analyzer (Roche, Rødovre, Denmark) using a NEFA-HR assay (Wako Chemicals, Neuss, Germany) and glycerol assay (Randox Laboratories, Crumlin, UK), respectively.
# Unless otherwise stated, results are presented as mean ± SEM. Baseline values were calculated as a mean of timepoints −35, −10 and 0 min or, when only available −10 and 0 min. Baseline values for the postprandial period were calculated as a mean of timepoint 60 min. Calculations of AUC were based on the trapezoidal rule. AUC values are reported for the period 0 to 255 min. To assess the fasting and postprandial periods separately, AUC values are reported for the periods 0 to 60 min and 60 to 255 min, respectively. Student’s paired t test was used to test for differences in baseline, peak, time to peak, AUC and mean values and ad libitum food intake in men.
smiles,measurement,setting,value
"CC[C@H](C)[C@@H]1NC(=O)[C@@H]2CSSC[C@@H](C(=O)N[C@@H](CO)C(=O)N[C@@H](CC(C)C)C(=O)N[C@@H](CO)C(=O)N[C@H](C(=O)N[C@@H](C)C(=O)N[C@@H](CCC(N)=O)C(=O)N[C@@H](CCC(=O)O)C(=O)O)C(C)C)NC(=O)[C@H](CCCNC(=N)N)NC(=O)[C@H](CCCNC(=N)N)NC(=O)[C@H](CCCCN)NC(=O)[C@H](CCCNC(=N)N)NC(=O)[C@H](CSSC[C@H](NC(=O)[C@H](CO)NC(=O)[C@H](C)NC(=O)CNC(=O)[C@@H](NC(=O)[C@@H]3CCCN3C(=O)[C@H](CCCNC(=N)N)NC(=O)[C@H](CC(C)C)NC(=O)[C@H](CO)NC(=O)[C@@H](NC(=O)CNC(=O)[C@H](CCCNC(=N)N)NC(=O)[C@H](Cc3c[nH]c4ccccc34)NC(=O)[C@H](Cc3ccccc3)NC(=O)[C@@H]3CCCN3C(=O)[C@@H](NC(=O)[C@@H](N)CCSC)[C@@H](C)O)C(C)C)[C@@H](C)CC)C(=O)N[C@@H](CCCNC(=N)N)C(=O)N[C@@H](CC(=O)O)C(=O)N[C@@H](CC(=O)O)C(=O)N[C@@H](CO)C(=O)N[C@@H](CCC(=O)O)C(=O)N2)NC(=O)[C@H](CC(C)C)NC(=O)[C@H](CCCNC(=N)N)NC(=O)[C@H]([C@@H](C)O)NC1=O [LEAP2, liver-expressed antimicrobial peptide 2] (H-MTPFWRGVSLRPIGASCRDDSECITRLCRKRRCSLSVAQE-OH; disulfide 17-28, 23-33 (inferred); N-terminus and C-terminus assumed)",plasma glucose during ad libitum food intake 1 h after dosing vs vehicle,"wild-type mice; female wild-type mice n = 10, LEAP2 3 μmol/kg single subcutaneous dose, after 4 h fast",significantly diminished increases in plasma glucose
same,glucose-lowering effect at later time points (2 and 4 h),"wild-type mice; female wild-type mice n = 10, LEAP2 3 μmol/kg subcutaneous",not at the later time points
same,cumulative food intake 2 and 4 h after dosing vs vehicle,"wild-type mice; female wild-type mice n = 10, LEAP2 3 μmol/kg subcutaneous, chow ad libitum from start of dark phase",lowered the cumulative food intake
same,"BAT thermogenesis (manubrium-corrected supraclavicular skin temperature), LEAP2 vs placebo",healthy men [1],no differences
same,Acyl ghrelin Baseline,"healthy men [2]; healthy men n = 20, LEAP2 day, before infusion",0.155 ± 0.011 ng/mL
same,Acyl ghrelin AUC,"healthy men [2]; healthy men n = 20, iv LEAP2 ~25 pmol/kg/min, 0 to 255 min",31.2 ± 1.94 ng·min/mL
same,Acyl ghrelin AUC0–60 min,"healthy men [2]; healthy men n = 20, iv LEAP2 ~25 pmol/kg/min, fasting period",9.50 ± 0.67 ng·min/mL
same,Acyl ghrelin Nadir,"healthy men [2]; healthy men n = 20, iv LEAP2 ~25 pmol/kg/min, liquid mixed meal at 65 min",0.088 ± 0.006 ng/mL
same,Acyl ghrelin AUC60–255 min,"healthy men [2]; healthy men n = 20, iv LEAP2 ~25 pmol/kg/min, postprandial period",21.7 ± 1.33 ng·min/mL
same,Acyl ghrelin Postprandial baseline,"healthy men [2]; healthy men n = 20, iv LEAP2 ~25 pmol/kg/min, time = 60 min",0.161 ± 0.012 ng/mL
